“Also recorded” adds a separate entry of the source.
Columns and labels:
[1] = system: tumors from the HER2 transgenic cell line HER-3081-3-10; assay: Growth of tumors from cell line HER-3081-3-10 in mice; assay type: in vivo, mouse; settings: 4D5, 7C2 30 mg/kg intraperitoneally for 4 weeks; taxol 15.6 mg/kg subcutaneously daily for 5 days; tumors 100 mm^3, FIG. 16
Experimental: The efficacy of taxol and anti-HER2 monclonal antibodies 7C2 and 4D5 in preventing tumor growth was assessed (FIG. 16). At day 0, 6-8 week old FVP mice were innoculated under the skin with 2 million tumor cells from cell line HER-3081-3-10. When the tumors reached 100 mm^3 the mice were separated into 5 groups with 9 animals per group. Antibodies 4D5 and 7C2 were given intraperitoneally at 30 mg/kg for 4 weeks. Taxol was given subcutaneously daily for 5 days at 15.6 mg/kg. Tumors were measured during the study at regular intervals.

[2] = system: MMTV-HER2-transgenic tumors transplanted into the mammary fat pad of FVB mice; assay: Transplanted MMTV-HER2-transgenic tumor model in FVB mice; assay type: in vivo, mouse
Source text: Two mm3 pieces of MMTV-HER2-transgenic tumors were transplanted into the mammary fat pad of FVB mice.
All animals received five doses.
The tumor was surgically resected under aseptic conditions and minced into small pieces, 2 mm^3, which were then transplanted into the mammary fat pad of wild-type FVB female mice.

[3] = system: HER-5, HER-3081-3-4, HER-3081-3-10 and HER-3081-3-19 cells; assay: Mitogen responsiveness of HER2 transgenic cell lines, crystal violet; assay type: cell-based, mouse; settings: heregulin 0.005-5 nM or EGF 0.05-50 ng/ml, 4 days, FIG. 11
Experimental: Briefly, cells were detached from a T75 flask with Dissociation Solution (Sigma) and plated in fibronectin coated 96 well plates. Approximately 10,000 cells were plated per well in 0.1 ml of fully supplemented media. […] After 4 days plates were washed twice with PBS (pH 7.5), stained with crystal violet (0.5% in methanol), dried, solubilized and the optical density measured at a wavelength of 540 nm on a plate reader, essentially as described in Sugarman et al. Science 230:943-945 (1985).

## CC(=O)O[C@H]1C(=O)[C@@]2(C)[C@H]([C@H](OC(=O)c3ccccc3)[C@]3(O)C[C@H](OC(=O)[C@H](O)[C@@H](NC(=O)c4ccccc4)c4ccccc4)C(C)=C1C3(C)C)[C@]1(OC(C)=O)CO[C@@H]1C[C@@H]2O [taxol, paclitaxel]
[1]
  reduction of tumor growth: more effective than either of the antibodies alone

## RITUXAN®: an unrelated antibody, used as negative control
[2]; FIG. 7, unconjugated control antibody
  efficacy on tumor size: no efficacy
[2]; FIG. 8, control antibody and control conjugate
  effect on tumor growth: Neither unconjugated RITUXAN® (control MAb E25) nor RITUXAN®-DM1 had any obvious effect on tumor growth

## heregulin
[3]
  proliferation in response to mitogen: only the HER-5 cell line proliferated; also recorded: mitogens only for cell line HER-5
